# Source: US20230303495A9, “PYRIDINE OXYNITRIDE, PREPARATION METHOD THEREFOR AND USE THEREOF” (Orion Corporation, priority 2019, published 2023)
# Molecular target: T1, NaV1.8 (Homo sapiens, UniProt Q9Y5Y9)
# T1 construct: expressed in transfected cells
# Experiment: Whole-cell patch clamp blocking activity against NaV1.8 channel current
# Format: cell-based
# Conditions: for Blocking rate (%) @100 nM: against NaV1.8 at 100 nM, CHO cell line stably expressing Nav1.8, patch clamp; for IC50: CHO cell line stably expressing Nav1.8 (SCN10A: NM_006514), patch clamp
# Method: 1. Test method: patch clamp technique was used to detect the influence of compounds on voltage-gated sodium channel (NaV) 1.1-1.8 subtype current
# 1) The specific information of the CHO cell line stably expressing the Nav1.8 channel was as follows: SCN10A: NM_006514
# 2) Cells were cultured in HAM'S/F-12 medium containing 10% fetal bovine serum and 10 μg/mL Blasticidin, 200 μg/mL Hygromycin B and 100 μg/mL Zeocin, culture temperature was 37° C. and the concentration of CO2 was 5%.
# 5) Patch clamp detection, before the experiment, the cells were separated with 0.25%—trypsin EDTA, inoculated into a 24 well plate with a density of 8*10^3 cells per well (final volume: 500 μL), tetracycline was added thereto, and experimental test was performed on the next day.
# 1) Extracellular fluid: 140 mM NaCl, 3.5 mM KCl, 2 mM CaCl2, 10 mM HEPES, 1.25 mM NaH2PO4, 1 mM MgCl2, 10 mM Glucose, pH=7.4 (NaOH).
# 2) Intracellular fluid: 50 mM CsCl, 10 mM NaCl, 10 mM HEPES, 20 mM EGTA, 60 mM CsF, pH=7.2 (CsOH).
# The voltage stimulation scheme of whole-cell patch clamp recording of Nav channel current was as follows: first the membrane potential of the cell was clamped at −130 mV, and then the voltage was stepped to −40 mV or −20 mV at 10 mv step intervals for 8 s. The clamping voltage was maintained at −120 mV, and data was collected repeatedly every 20 seconds. The peak amplitude of its inward current was measured to determine its half-inactivation voltage.
# The cell clamping potential was set at −120 mV. The resting and half-inactivation inhibition of sodium current was measured using double pulse mode. The double pulse mode was completed by two 0 mV depolarization test pulses (TP1 and TP2) lasting 50 ms. The conditional voltage between the two depolarization pulses was set near the half-inactivation voltage (lasting 8 s). […] The data acquisition was repeated at an interval of 20 s and the current peak was measured at the two test pulses.
# When the current of the Nav channel recorded by the whole cell was stable, the drug was administered, after each drug concentration was applied for 5 minutes (or the current was stable), the next concentration would be tested, and multiple concentrations would be tested for each test compound. The cover glass covered with cells was placed in the recording bath of an inverted microscope, the test compound and the external liquid without compound flowed through the recording chambers in turns from low concentration to high concentration by gravity perfusion, so as to act on the cells, in the recording, the liquid exchange was carried out by vacuum pump. The current detected in each cell in the compound-free external fluid served as its own control group. Multiple cells were detected independently and repeatedly. All electrophysiological experiments were performed at room temperature.
# First, the current after the action of each drug concentration and the blank control current were normalized, and then the blocking rate corresponding to each drug concentration was calculated. The mean and standard error were calculated for each concentration, and all the above values were calculated by Microsoft Excel 2013. In addition, the half-inhibitory concentration of each compound was calculated by IGOR software with the following equation: retardation rate=1/[1+(IC50/c)^h].
# The dose-dependent effect was nonlinearly fitted with the above equation, wherein, c refers to the drug concentration, IC50 was the half inhibitory concentration, and h refers to the Hill coefficient. The curve fitting and the calculation of IC50 were completed by IGOR software (software version: 6.0.1.0).
# T1 sequence (Q9Y5Y9 whole entry): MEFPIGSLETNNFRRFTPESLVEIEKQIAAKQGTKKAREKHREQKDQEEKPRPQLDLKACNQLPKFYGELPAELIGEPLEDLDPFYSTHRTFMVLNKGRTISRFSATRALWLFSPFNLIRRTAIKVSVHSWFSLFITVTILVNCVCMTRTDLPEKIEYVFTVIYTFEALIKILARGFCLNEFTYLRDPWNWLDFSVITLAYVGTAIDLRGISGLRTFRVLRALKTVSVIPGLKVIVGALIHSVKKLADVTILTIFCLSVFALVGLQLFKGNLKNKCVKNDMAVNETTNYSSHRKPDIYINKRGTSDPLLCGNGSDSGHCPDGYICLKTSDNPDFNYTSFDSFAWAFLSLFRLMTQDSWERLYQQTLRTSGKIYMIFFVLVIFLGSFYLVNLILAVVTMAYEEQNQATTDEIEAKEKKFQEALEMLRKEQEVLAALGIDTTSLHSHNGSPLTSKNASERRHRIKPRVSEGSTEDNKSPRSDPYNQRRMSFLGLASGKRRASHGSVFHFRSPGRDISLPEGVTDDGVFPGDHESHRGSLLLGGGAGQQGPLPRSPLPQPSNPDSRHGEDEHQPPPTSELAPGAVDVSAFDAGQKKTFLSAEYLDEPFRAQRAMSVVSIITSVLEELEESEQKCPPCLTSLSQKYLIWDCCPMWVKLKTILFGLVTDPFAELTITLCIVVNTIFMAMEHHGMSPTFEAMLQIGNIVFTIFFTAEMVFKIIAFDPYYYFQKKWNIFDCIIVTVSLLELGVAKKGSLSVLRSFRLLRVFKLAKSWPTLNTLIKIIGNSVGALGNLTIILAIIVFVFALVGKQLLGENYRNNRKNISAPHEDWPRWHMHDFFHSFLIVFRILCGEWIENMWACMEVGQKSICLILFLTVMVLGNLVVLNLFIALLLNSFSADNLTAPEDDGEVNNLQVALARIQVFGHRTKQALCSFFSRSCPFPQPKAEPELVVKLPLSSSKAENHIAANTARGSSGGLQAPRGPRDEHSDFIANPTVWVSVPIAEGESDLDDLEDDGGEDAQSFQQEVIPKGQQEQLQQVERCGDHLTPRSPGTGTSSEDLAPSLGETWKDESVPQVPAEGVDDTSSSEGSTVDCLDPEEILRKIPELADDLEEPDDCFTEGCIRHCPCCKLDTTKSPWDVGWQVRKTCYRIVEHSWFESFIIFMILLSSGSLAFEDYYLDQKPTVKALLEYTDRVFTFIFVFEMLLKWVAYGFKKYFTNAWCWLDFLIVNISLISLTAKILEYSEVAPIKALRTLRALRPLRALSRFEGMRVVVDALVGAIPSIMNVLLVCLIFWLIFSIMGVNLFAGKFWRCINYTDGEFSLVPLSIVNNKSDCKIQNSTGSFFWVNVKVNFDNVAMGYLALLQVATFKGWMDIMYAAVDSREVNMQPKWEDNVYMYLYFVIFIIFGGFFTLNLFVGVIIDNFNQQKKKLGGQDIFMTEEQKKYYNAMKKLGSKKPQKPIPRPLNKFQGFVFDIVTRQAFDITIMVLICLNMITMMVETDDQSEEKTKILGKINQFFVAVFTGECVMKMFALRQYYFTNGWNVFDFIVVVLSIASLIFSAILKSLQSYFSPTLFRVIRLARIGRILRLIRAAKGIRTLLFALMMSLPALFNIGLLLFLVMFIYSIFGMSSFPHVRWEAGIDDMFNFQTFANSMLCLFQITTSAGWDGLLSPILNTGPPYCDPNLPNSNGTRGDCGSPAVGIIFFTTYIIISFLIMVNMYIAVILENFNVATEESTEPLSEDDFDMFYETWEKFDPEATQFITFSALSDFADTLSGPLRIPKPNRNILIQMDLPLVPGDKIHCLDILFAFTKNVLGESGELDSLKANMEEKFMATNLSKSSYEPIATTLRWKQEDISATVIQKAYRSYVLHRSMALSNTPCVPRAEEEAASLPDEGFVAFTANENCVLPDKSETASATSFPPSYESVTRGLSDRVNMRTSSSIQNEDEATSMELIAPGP
SMILES,Blocking rate (%) @100 nM [%],IC50 [nM]
COc1c(Cl)c(C(F)(F)F)cc(Oc2ccc(F)cc2C)c1C(=O)Nc1ccc[n+]([O-])c1 [Embodiment A105],98.42,–
O=C(Nc1ccc[n+]([O-])c1)c1c(Oc2ccc(OC(F)(F)F)cc2)ccc(C(F)(F)C(F)(F)F)c1F [Embodiment A18],96.02,–
O=C(Nc1ccc[n+](O)c1)c1c(Oc2ccc(OC(F)(F)F)cc2Cl)ccc(C(F)(F)F)c1F [Embodiment A54],94.99,–
O=C(Nc1ccc[n+]([O-])c1)c1c(Oc2ccc(OC(F)(F)F)cc2)cc(Cl)c(C(F)(F)F)c1F [Embodiment A40],99.91,–
O=C(Nc1ccc[n+](O)c1)c1c(Oc2ccc(OC(F)(F)F)cc2)ccc(OC(F)(F)F)c1F [Embodiment A19],–,10
O=C(Nc1cc[n+]([O-])nc1)c1c(Oc2ccc(OC(F)(F)F)cc2)ccc(I)c1F [Embodiment A23],97.04,–
O=C(Nc1ccn[n+]([O-])c1)c1c(Oc2ccc(OC(F)(F)F)cc2)ccc(I)c1F [Embodiment A24],91.28,–
O=C(Nc1cc[n+]([O-])nc1)c1cc(Cl)c(Cl)cc1Oc1ccc(OC(F)(F)F)c(F)c1 [Embodiment A37],–,3.2
O=C(Nc1ccc[n+]([O-])c1)c1c(Oc2ccc(OC(F)(F)F)cc2)cnc(C(F)(F)F)c1Cl [Embodiment A63],93.13,–
O=C(Nc1ccc[n+]([O-])c1)c1c(Oc2ccc(OCC(F)(F)F)cc2)ccc(Br)c1Cl [Embodiment A31],88.88,–
O=C(Nc1ccc[n+]([O-])c1)c1c(Oc2ccc(OC(F)(F)F)cc2)cnc(C(F)(F)F)c1F [Embodiment A59],87.57,–
Cc1cc(F)ccc1Oc1cc(S(F)(F)(F)(F)F)ccc1C(=O)Nc1ccc[n+]([O-])c1 [Embodiment A8],81.85,–
O=C(Nc1ccc[n+]([O-])c1)c1c(Oc2ccc(OC(F)(F)F)cc2)ccc(Cl)c1F [Embodiment A75],88.87,–
O=C(Nc1cc[n+]([O-])nc1)c1c(Oc2ccc(OC(F)(F)F)cc2)ccc(C(F)(F)F)c1Cl [Embodiment A27],–,0.64
O=C(Nc1ccc[n+]([O-])c1)c1c(Oc2ccc(F)cc2C2CC2)cc(C(F)(F)F)c(Cl)c1F [Embodiment A111],99.42,–
O=C(Nc1ccc[n+]([O-])c1)c1c(Oc2ccc(OC(F)F)cc2)ccc(C(F)(F)F)c1F [Embodiment A16],85.08,–
O=C(Nc1ccn[n+]([O-])c1)c1c(Oc2ccc(OC(F)(F)F)cc2)ccc(C(F)(F)F)c1F [Embodiment A45],78.46,–
Cc1cc(F)ccc1Oc1cc(C(F)(F)F)c(Cl)c(F)c1C(=O)Nc1ccc[n+]([O-])c1 [Embodiment A104],97.93,–
O=C(Nc1ccc[n+]([O-])c1)c1cc(Cl)c(C(F)(F)F)cc1Oc1ccc(F)cc1OC1CC1 [Embodiment A108],96.92,–
O=C(Nc1cc[n+]([O-])nc1)c1c(Oc2ccc(OC(F)(F)F)cc2)cnc(C(F)(F)F)c1F [Embodiment A61],–,10.2
O=C(Nc1cc[n+]([O-])nc1)c1c(Oc2ccc(OC(F)F)cc2)ccc(C(F)(F)F)c1F [Embodiment A72],85.63,–
O=C(Nc1ccc[n+]([O-])c1)c1cc(Cl)c(C2CC2)cc1Oc1ccc(OC(F)(F)F)cc1 [Embodiment A95],93.84,–
O=C(Nc1cc[n+]([O-])nc1)c1c(Oc2ccc(OC(F)(F)F)cc2)cnc(C(F)(F)F)c1Cl [Embodiment A65],93.18,–
O=C(Nc1ccc[n+]([O-])c1)c1cc(Cl)c(Br)cc1Oc1ccc(OC(F)(F)F)cc1 [Embodiment A96],88.78,–
O=C(Nc1ccc[n+](O)c1)c1c(Oc2ccc(OC(F)(F)F)c(F)c2)cnc(C(F)(F)F)c1F [Embodiment A62],89.79,–
O=C(Nc1ccc[n+]([O-])c1)c1cc(Cl)c(OC(F)(F)F)cc1Oc1ccc(OC(F)(F)F)cc1 [Embodiment A91],92.81,–

SMILES,Blocking rate (%) @100 nM [%],IC50 [nM]
O=C(Nc1ccc[n+]([O-])c1)c1c(Oc2ccc(OC(F)(F)F)cc2)ccc(I)c1F [Embodiment A73],–,3.2
O=C(Nc1ccn[n+]([O-])c1)c1c(Oc2ccc(OC(F)(F)F)cc2)ccc(C(F)(F)F)c1Cl [Embodiment A28],–,2.9
O=C(Nc1ccn[n+]([O-])c1)c1cc(Cl)c(Cl)cc1Oc1ccc(OC(F)(F)F)cc1 [Embodiment A36],87.40,–
COc1cc(Oc2ccc(OC(F)(F)F)cc2)c(C(=O)Nc2ccc[n+]([O-])c2)c(F)c1C(F)(F)F [Embodiment A78],96.55,–
COc1cc(F)ccc1Oc1cc(C(F)(F)F)c(Cl)c(F)c1C(=O)Nc1ccc[n+]([O-])c1 [Embodiment A86],–,0.08
Cc1cc(F)ccc1Oc1cc(C(F)(F)F)c(Br)cc1C(=O)Nc1ccc[n+]([O-])c1 [Embodiment A107],95.60,–
O=C(Nc1cc[n+]([O-])cc1)c1c(Oc2ccc(OC(F)(F)F)cc2)ccc(C(F)(F)F)c1F [Embodiment A44],77.61,–
Cc1cc(Oc2ccc(OC(F)(F)F)cc2)c(C(=O)Nc2ccc[n+]([O-])c2)cc1Cl [Embodiment A92],85.44,–
O=C(Nc1ccc[n+](O)c1)c1c(Oc2ccc(OC(F)(F)F)cc2)ccc(C(F)(F)F)c1F [Embodiment A42],–,3.6
O=C(Nc1ccc[n+]([O-])c1)c1c(Oc2ccc(F)cc2Cl)ccc(C(F)(F)F)c1F [Embodiment A50],79.66,–
O=C(Nc1cc[n+]([O-])nc1)c1c(Oc2ccc(OC(F)(F)F)cc2)ccc(Br)c1F [Embodiment A33],–,4.6
O=C(Nc1cc[n+]([O-])nc1)c1cc(Cl)c(Cl)cc1Oc1ccc(OC(F)(F)F)cc1 [Embodiment A35],–,3
O=C(Nc1ccn[n+]([O-])c1)c1cc(Cl)c(Cl)cc1Oc1ccc(OC(F)(F)F)c(F)c1 [Embodiment A38],–,7.3
COc1cc(F)ccc1Oc1cc(Cl)c(Cl)cc1C(=O)Nc1ccc[n+]([O-])c1 [Embodiment A5],–,7.4
O=C(Nc1cc[n+]([O-])c(Cl)c1)c1c(Oc2ccc(OC(F)(F)F)cc2)ccc(C(F)(F)F)c1F [Embodiment A43],76.10,–
O=C(Nc1ccc[n+](O)c1)c1c(Oc2ccc(OC(F)(F)F)cc2)ccc(C(F)(F)F)c1Cl [Embodiment A57],–,1.8
O=C(Nc1ccc[n+](O)c1)c1c(Oc2ccc(OC(F)(F)F)c(F)c2)cc(Cl)c(Cl)c1F [Embodiment A21],98.02,–
O=C(Nc1cc[n+]([O-])nc1)c1c(Oc2ccc(OC(F)(F)F)c(F)c2)cnc(C(F)(F)F)c1F [Embodiment A83],84.98,–
O=C(Nc1cc[n+]([O-])cc1)c1c(Oc2ccc(OC(F)(F)F)cc2)cnc(C(F)(F)F)c1Cl [Embodiment A102],82.71,–
O=C(Nc1ccc[n+](O)c1)c1c(F)cc(OC(F)(F)F)cc1Oc1ccc(OC(F)(F)F)cc1 [Embodiment A20],87.14,–
O=C(Nc1ccc[n+]([O-])c1)c1c(Cl)cc(C(F)(F)F)cc1Oc1ccc(OC(F)(F)F)cc1 [Embodiment A29],87.63,–
COc1cc(F)ccc1Oc1cc(C(F)(F)F)c(Cl)cc1C(=O)Nc1ccc[n+]([O-])c1 [Embodiment A85],–,1.7
O=C(Nc1ccn[n+]([O-])c1)c1c(Oc2ccc(OC(F)(F)F)cc2)ccc(Br)c1F [Embodiment A34],90.16,–
O=C(Nc1cc[n+]([O-])nc1)c1c(F)cc(C(F)(F)F)cc1Oc1ccc(OC(F)(F)F)cc1 [Embodiment A80],–,8.4
O=C(Nc1ccc[n+]([O-])c1)c1c(Oc2ccc(OC(F)(F)F)cc2F)ccc(C(F)(F)F)c1F [Embodiment A52],80.75,–
